From ChEMBL document CHEMBL1130613, “Design and synthesis of dipeptidyl alpha',beta'-epoxy ketones, potent irreversible inhibitors of the cysteine protease cruzain” (Bioorg Med Chem Lett, 1998)

Target: Cruzipain (Trypanosoma cruzi) (UniProt P25779)
Test: Second order rate constant for inhibition of cruzain

Chain of Cruzipain (Trypanosoma cruzi) (P25779 123-467 limits assumed): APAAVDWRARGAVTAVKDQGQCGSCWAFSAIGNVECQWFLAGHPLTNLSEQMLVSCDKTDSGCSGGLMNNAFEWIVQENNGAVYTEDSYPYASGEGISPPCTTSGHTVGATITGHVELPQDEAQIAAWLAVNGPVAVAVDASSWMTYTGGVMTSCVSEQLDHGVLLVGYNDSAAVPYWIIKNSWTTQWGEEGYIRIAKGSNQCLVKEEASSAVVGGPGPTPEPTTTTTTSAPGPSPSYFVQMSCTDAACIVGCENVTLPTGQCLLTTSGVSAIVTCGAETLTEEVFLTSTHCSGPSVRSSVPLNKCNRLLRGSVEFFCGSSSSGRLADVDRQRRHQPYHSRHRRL

K inact/Ki | SMILES
330000 M⁻¹ s⁻¹ | O=C(N[C@@H](Cc1ccccc1)C(=O)N[C@@H](CCc1ccccc1)C(=O)[C@@H]1CO1)OCc1ccccc1
128000 M⁻¹ s⁻¹ | C[C@H](NC(=O)[C@H](Cc1ccccc1)NC(=O)OCc1ccccc1)C(=O)[C@@H]1CO1
70600 M⁻¹ s⁻¹ | CC(C)CCNC(=O)[C@H](CC(C)C)NC(=O)[C@H]1OC1C(=O)O (single isomer, unassigned)
